From PubChem BioAssay (NCI)
Where “and” joins values, the source holds several entries; their conditions need not be identical. Identical values can stand only once.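 How tested: cells in 96-well plates exposed to compound for 48 hours at five concentrations. GI50 = concentration required for 50% inhibition of growth. At the TGI there is no net growth.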

System: MDA-MB-468 breast
Assay: inhibition of tumour cell growth, NCI panel, 48 h

Q: `CCOc1ccc(/C=N/Nc2cc(C)nc3ccc(Cl)cc23)cc1` was tested. Which GI50 did it give?
A: Its GI50 is 1.73 µM.

Q: What about the TGI of the same molecule?
A: The TGI was 3.27 µM.

Q: For `O=S(=O)(c1ccc2c(c1)C(=NO)c1cc(S(=O)(=O)N3CCCCC3)ccc1-2)N1CCCCC1`, which GI50 is on record?
A: Its GI50 is 0.237 µM and 0.137 µM.

Q: What about the TGI of the same molecule?
A: The TGI was 0.608 µM and 0.277 µM.

Q: `Clc1cccc(Cn2cc(Cc3cn(Cc4cccc(Cl)c4)c4ccccc34)c3ccccc32)c1` was tested. Which GI50 did it give?
A: Its GI50 is 17 µM.

Q: What about the TGI of the same molecule?
A: Its TGI is 37.3 µM.

Q: For `COc1c(Nc2ncc(Cl)c(N[C@@H]3[C@H]4C=CC(C4)[C@@H]3C(N)=O)n2)ccc2c1CC[C@@H](N1CCOCC1)CC2`, which GI50 is on record?
A: Its GI50 is 2.2 µM.

Q: And the TGI?
A: Its TGI is 8.13 µM.

Q: How did the GI50 turn out when `CCCCN(CCCC)c1cc(C(=O)CCCCCN)c2ccccc2n1` was run?
A: Its GI50 is 1.43 µM.

Q: What about the TGI of the same molecule?
A: The TGI was 3.05 µM.

Q: What does the source list for `COc1ccc(Nc2nc(NCc3ccccc3)c3ccccc3n2)cc1`?
A: GI50: 1.61 µM; TGI: 3.37 µM

Q: Which results are given for `O=C(/C=C/c1ccccc1Cl)c1ccc(O)cc1`?
A: GI50: 2.77 µM; TGI: 13 µM

Q: Which GI50 does the source give for `O=C(/C=C/c1ccccc1O)c1ccccc1` here?
A: The GI50 was 6.06 µM.

Q: What about the TGI of the same molecule?
A: The TGI was 19.2 µM.

Q: What does the source list for `Nc1cccc(-c2nc3sccn3c2-c2ccnc(NCCCNS(=O)(=O)c3ccc(C(F)(F)F)cc3)n2)c1`?
A: GI50: 2.44 µM; TGI: 33.8 µM

Q: Which results are given for `CCN1CCN(CCNc2nccc(-c3c(-c4cccc(O)c4)nc4sccn34)n2)S1(=O)=O`?
A: GI50: 9.04 µM and 12.5 µM; TGI: 32.5 µM and 36.6 µM

Q: Which results are given for `C[C@H](Nc1ccc(C#N)n(C)c1=O)c1cc2cc(Cl)ccc2[nH]c1=O`?
A: GI50: 21.6 µM; TGI: 84 µM

Q: What does the source list for `CCS(=O)(=O)c1ccc(OC)c(Nc2ncc(-c3cccc(-c4ccccc4F)c3)o2)c1`?
A: GI50: 4.95 µM; TGI: > 25 µM

Q: Which results are given for `CC(C)[C@@H]1NC(=O)[C@]2(C)CSC(=N2)c2csc(n2)CNC(=O)C[C@@H](/C=C/CCS)OC1=O`?
A: GI50: 0.206 µM; TGI: 4.43 µM

Q: `O=C1OCC2=C1C(c1ccccc1)c1cc3c(cc1N2CCO)CCC3` (configuration not stated) was tested. Which GI50 did it give?
A: The GI50 was 0.0559 µM.

Q: And the TGI?
A: The TGI was 0.156 µM.

Q: For `C[C@H]1O[C@@H](O[C@H]2[C@@H](O)C[C@H](O[C@H]3[C@@H](O)C[C@H](O[C@H]4CC[C@]5(C)C6C[C@@H](O)[C@]7(C)[C@@H](C8=CC(=O)OC8)CC[C@]7(O)C6CC[C@@H]5C4)O[C@@H]3C)O[C@@H]2C)C[C@H](O)[C@@H]1O` (some centres not stated), which GI50 is on record?
A: The GI50 was 0.148 µM.

Q: What about the TGI of the same molecule?
A: The TGI was 0.465 µM.

Q: Which GI50 does the source give for `COC(=O)C1=C(C(=O)Nc2cccnc2)C2OC1(C(Cc1ccccc1)Oc1ccccc1)C1OC21` (configuration not stated) here?
A: The GI50 was 1.72 µM.

Q: What about the TGI of the same molecule?
A: The TGI was 4.25 µM.

Q: `C=C1C(=O)O[C@H]2[C@H]1CC/C(COC(=O)NCc1c[nH]c3ccc(OC)cc13)=C\CC[C@@]1(C)O[C@@H]21` was tested. Which GI50 did it give?
A: Its GI50 is 1.32 µM.

Q: What about the TGI of the same molecule?
A: Its TGI is 4.62 µM.

Q: How did the GI50 turn out when `O=C1OCC2=C1C(c1cccc([N+](=O)[O-])c1)c1cc3c(cc1N2CCO)CCC3` (configuration not stated) was run?
A: The GI50 was 0.147 µM.

Q: And the TGI?
A: Its TGI is 8.88 µM.

Q: Which GI50 does the source give for `NC(=O)c1ncn(C2OC(CO)C(O)C2O)n1` (configuration not stated) here?
A: Its GI50 is 69.7 µM.

Q: And the TGI?
A: The TGI was > 100 µM.

Q: For `N#Cc1cc(-c2ccccc2)[nH]c1-c1nccc2ccccc12`, which GI50 is on record?
A: Its GI50 is 3.33 µM.

Q: And the TGI?
A: Its TGI is 44.9 µM.

Q: With `Cn1c(=O)c(Sc2ccccc2F)cc2cnc(NC3CCOCC3)nc21` as the molecule, how does the GI50 read?
A: The GI50 was > 25 µM.

Q: What about the TGI of the same molecule?
A: The TGI was > 25 µM.

Q: With `Cc1cc(N2CCOCC2)nc(N(CCNc2ccnc3cc(Cl)ccc23)Cc2ccco2)n1` as the molecule, how does the GI50 read?
A: The GI50 was 2.09 µM.

Q: What about the TGI of the same molecule?
A: The TGI was 6.41 µM.

Q: What does the source list for `COc1cccc(C2=NN(C(C)=O)C(c3cc(OC)c(OC)c(OC)c3)C2)c1` (configuration not stated)?
A: GI50: 1.01 µM; TGI: > 30.9 µM

Q: With `COc1cccc(N2CCN(c3ncnc4c3[nH]c3ccc(F)cc34)C[C@@H]2C)c1` as the molecule, how does the GI50 read?
A: The GI50 was 1.59 µM.

Q: What about the TGI of the same molecule?
A: The TGI was 5.31 µM.

Q: `COc1cc(C2=Nc3c/c(=C\c4c(O)[nH]c5ccc(Cl)cc45)ccc3=N2)cc(OC)c1OC` was tested. Which GI50 did it give?
A: The GI50 was 1.97 µM.

Q: And the TGI?
A: The TGI was 4.41 µM.

Q: How did the GI50 turn out when `O=C(Nc1cccnc1)c1cccs1` was run?
A: Its GI50 is 0.603 µM.

Q: What about the TGI of the same molecule?
A: The TGI was > 100 µM.

Q: Which results are given for `COC(=O)c1c2c(c[n+]([O-])c1C)C(=O)C(NCc1ccccc1)=CC2=O`?
A: GI50: 0.232 µM; TGI: 0.672 µM

Q: For `NC(=O)Cc1ccccc1Oc1nccc(-c2c(-c3ccc(F)cc3)ncn2C2CCNCC2)n1`, which GI50 is on record?
A: The GI50 was 8.2 µM.

Q: What about the TGI of the same molecule?
A: The TGI was > 25 µM.

Q: How did the GI50 turn out when `CCN(CC)CCC(CNc1c2ccc([N+](=O)[O-])cc2nc2cc(OC)c(OC)cc12)c1ccccc1` (configuration not stated) was run?
A: Its GI50 is 0.324 µM and 0.229 µM.

Q: And the TGI?
A: Its TGI is 1.63 µM and 1.22 µM.

Q: For `Clc1ccc(-c2nc(-c3c[nH]c4ncccc34)cs2)cc1`, which GI50 is on record?
A: Its GI50 is > 100 µM.

Q: And the TGI?
A: Its TGI is > 100 µM.

Q: What does the source list for `O=[N+]([O-])c1ccc(Oc2cccnc2)c([N+](=O)[O-])c1`?
A: GI50: 3.06 µM; TGI: 13.8 µM

Q: With `NCC(=O)Nc1ccc(-n2nc(C(F)(F)F)cc2-c2ccc3c(ccc4ccccc43)c2)cc1` as the molecule, how does the GI50 read?
A: Its GI50 is 1.56 µM.

Q: And the TGI?
A: Its TGI is 3.02 µM.

Q: Which results are given for `CCc1ccc(/C(C#N)=C/C=C/c2ccccc2)cc1`?
A: GI50: 0.838 µM; TGI: 9.87 µM

Q: For `O=C(O[C@H]1CN[C@H](C#Cc2cc3ncnc(Nc4ccc(Cc5ccccc5)cc4)c3s2)C1)N1CCOCC1`, which GI50 is on record?
A: Its GI50 is 1.27 µM.

Q: What about the TGI of the same molecule?
A: The TGI was 6.37 µM.

Q: How did the GI50 turn out when `O=Cc1ncc(-c2ccc(C(F)(F)F)cc2)c(NC2CCCCCC2)n1` was run?
A: The GI50 was > 10 µM.

Q: What about the TGI of the same molecule?
A: The TGI was > 10 µM.

Q: What does the source list for `CC1=C(CN(O)C(N)=O)C2=C(C)C3(CC3)[C@@](C)(O)C(=O)C2=C1`?
A: GI50: 0.141 µM; TGI: 0.347 µM

Q: For `CCNC(=O)Nc1ccc(-c2nc3c(c(N4CCOC[C@@H]4C)n2)CCN(C2COC2)C3)cc1`, which GI50 is on record?
A: Its GI50 is 0.135 µM and 0.125 µM.

Q: What about the TGI of the same molecule?
A: Its TGI is 1.72 µM and 1.38 µM.

Q: How did the GI50 turn out when `Cc1oncc1C(=O)Nc1ccc(C(F)(F)F)cc1` was run?
A: Its GI50 is 37.1 µM.

Q: What about the TGI of the same molecule?
A: Its TGI is > 100 µM.

Q: What does the source list for `Cc1nc(NC(=O)COc2cccc(/C=C3\COc4ccccc4C3=O)c2)sc1C`?
A: GI50: 1.76 µM; TGI: 3.84 µM

Q: How did the GI50 turn out when `C=CC[Se]C(=O)c1ccccc1OC(C)=O` was run?
A: Its GI50 is 1.78 µM.

Q: What about the TGI of the same molecule?
A: The TGI was 3.75 µM.

Q: Which GI50 does the source give for `CN(C)c1cc2c(Nc3ccc4nc(Cc5ccccc5)[nH]c4c3)ncnc2cn1` here?
A: The GI50 was > 9.6 µM.

Q: And the TGI?
A: Its TGI is > 25 µM.
